In ChEMBL document CHEMBL1201862, “PubChem BioAssay data set” (2004):
The source made the active and inactive calls.

What was measured:
[1] = inhibitors of HIV Env-driven cell fusion, dose response, cherry-pick (AID 652057); assay type: functional, cell-based
[2] = ZM109 Env clade C HIV-1 fusion inhibitors, dose response, HeLa effector, CEM target cells, luciferase, cherry-pick (AID 652058); assay type: functional, cell-based
[3] = off-target signal loss in HeLa-CEM21 co-culture – HeLa F-luc CTL cells, cherry-picked, counter-screen for HIV-1 Env fusion inhibitor project, dose response (AID 652040); assay type: functional, cell-based;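 also: potency for signal decrease marking cytotoxic or nonspecific inhibition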
P388/ADR = experiment: cells; assay type: functional; details: Mus musculus
SN12K1 = experiment: cells; assay type: functional; details: Homo sapiens
P388 = experiment: cells; assay type: functional; details: Mus musculus
Leucine aminopeptidase = target: T1, Leucine aminopeptidase (Plasmodium falciparum 3D7, UniProt Q8IL11); experiment: P. falciparum M17LAP inhibitors, primary screen, biochemical, fluorogenic H-Leu-NHMec substrate, 1536-well (AID 1619); assay type: functional
T1 sequence (Q8IL11 whole entry): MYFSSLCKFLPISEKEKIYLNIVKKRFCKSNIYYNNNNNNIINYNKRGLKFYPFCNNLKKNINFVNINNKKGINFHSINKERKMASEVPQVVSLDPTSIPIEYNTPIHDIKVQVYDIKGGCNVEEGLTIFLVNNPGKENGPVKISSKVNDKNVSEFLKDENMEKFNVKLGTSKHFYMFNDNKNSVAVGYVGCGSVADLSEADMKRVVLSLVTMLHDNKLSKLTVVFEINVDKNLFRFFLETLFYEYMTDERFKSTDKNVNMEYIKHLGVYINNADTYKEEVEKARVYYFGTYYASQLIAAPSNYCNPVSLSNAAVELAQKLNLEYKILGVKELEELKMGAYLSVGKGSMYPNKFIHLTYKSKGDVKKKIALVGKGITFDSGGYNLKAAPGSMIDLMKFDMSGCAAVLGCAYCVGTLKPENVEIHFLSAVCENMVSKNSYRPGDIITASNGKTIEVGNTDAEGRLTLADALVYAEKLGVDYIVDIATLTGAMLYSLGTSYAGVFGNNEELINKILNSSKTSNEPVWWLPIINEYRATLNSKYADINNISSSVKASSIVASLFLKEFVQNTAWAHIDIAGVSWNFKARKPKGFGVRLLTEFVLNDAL

Aminopeptidase N = target: T2, Aminopeptidase N (Plasmodium falciparum FcB1/Columbia, UniProt O96935); experiment: P. falciparum M1AAP inhibitors, biochemical, fluorogenic H-Leu-NHMec substrate, 1536-well (AID 1445); set-up: species or system Plasmodium falciparum 3D7, 3D7
T2 sequence (O96935 whole entry): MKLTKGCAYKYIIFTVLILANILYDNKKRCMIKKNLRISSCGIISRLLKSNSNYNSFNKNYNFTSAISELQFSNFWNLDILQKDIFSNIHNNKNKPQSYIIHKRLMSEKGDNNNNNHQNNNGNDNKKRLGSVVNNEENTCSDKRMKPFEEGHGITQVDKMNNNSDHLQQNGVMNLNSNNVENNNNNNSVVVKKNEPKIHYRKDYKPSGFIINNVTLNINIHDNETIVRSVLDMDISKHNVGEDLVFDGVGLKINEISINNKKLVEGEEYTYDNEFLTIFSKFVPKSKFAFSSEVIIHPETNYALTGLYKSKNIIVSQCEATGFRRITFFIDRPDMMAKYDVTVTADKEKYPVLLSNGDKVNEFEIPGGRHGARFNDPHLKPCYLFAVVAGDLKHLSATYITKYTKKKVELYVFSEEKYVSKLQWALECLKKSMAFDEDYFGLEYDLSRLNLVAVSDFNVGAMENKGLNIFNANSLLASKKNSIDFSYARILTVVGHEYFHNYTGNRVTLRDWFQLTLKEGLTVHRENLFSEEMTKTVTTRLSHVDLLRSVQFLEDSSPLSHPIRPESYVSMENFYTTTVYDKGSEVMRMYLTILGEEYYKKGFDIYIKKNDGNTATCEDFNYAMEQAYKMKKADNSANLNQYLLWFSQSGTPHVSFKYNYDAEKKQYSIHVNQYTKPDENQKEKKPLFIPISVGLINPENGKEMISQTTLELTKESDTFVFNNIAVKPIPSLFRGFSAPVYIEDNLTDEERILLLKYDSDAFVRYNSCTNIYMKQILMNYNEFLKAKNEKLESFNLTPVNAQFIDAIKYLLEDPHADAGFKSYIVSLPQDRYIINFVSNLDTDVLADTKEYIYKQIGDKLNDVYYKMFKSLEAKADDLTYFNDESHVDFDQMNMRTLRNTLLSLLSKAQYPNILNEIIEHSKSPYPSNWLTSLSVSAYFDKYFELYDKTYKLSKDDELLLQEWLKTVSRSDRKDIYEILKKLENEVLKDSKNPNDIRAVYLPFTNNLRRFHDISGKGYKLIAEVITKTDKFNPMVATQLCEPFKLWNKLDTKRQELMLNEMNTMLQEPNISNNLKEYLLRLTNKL

Large T antigen = Large T antigen (Simian virus 40, UniProt P03070); assay type: functional, Betapolyomavirus macacae;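 also: Confirmatory-stage PubChem screen for compounds that inhibit SV40 T antigen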
H9c2 = experiment: cells; assay type: functional, cell-based; details: Rattus norvegicus, H9c2, Myocardium;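 also: confirmatory concentration-response retest of ultra-high-throughput screening hits for modulation of myocardial damage; cell death induced by hydrogen peroxide oxidative stress; compound pretreatment for 60 min then peroxide exposure for 2 h; potency is for protecting the cells against peroxide damage rather than for killing them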
[4] = inhibitors of clade B AD8 Env fusion, dose response, cell-based, cherry-pick (AID 652062); assay type: functional;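 also: luciferase signal from cell-cell fusion driven by HIV-1 clade B AD8 Env; potency is for inhibitors of fusion seen as a drop in luminescence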
[5] = target: T3, Corticotropin-releasing factor receptor 2/Corticotropin-releasing factor-binding protein (Homo sapiens, UniProt P24387+Q13324); experiment: activators of CRF receptor 2 with binding protein – uHTS hits, confirmation (AID 602473); assay type: functional; details: read-out: EC50_Mean
T3 sequence (Q13324 whole entry): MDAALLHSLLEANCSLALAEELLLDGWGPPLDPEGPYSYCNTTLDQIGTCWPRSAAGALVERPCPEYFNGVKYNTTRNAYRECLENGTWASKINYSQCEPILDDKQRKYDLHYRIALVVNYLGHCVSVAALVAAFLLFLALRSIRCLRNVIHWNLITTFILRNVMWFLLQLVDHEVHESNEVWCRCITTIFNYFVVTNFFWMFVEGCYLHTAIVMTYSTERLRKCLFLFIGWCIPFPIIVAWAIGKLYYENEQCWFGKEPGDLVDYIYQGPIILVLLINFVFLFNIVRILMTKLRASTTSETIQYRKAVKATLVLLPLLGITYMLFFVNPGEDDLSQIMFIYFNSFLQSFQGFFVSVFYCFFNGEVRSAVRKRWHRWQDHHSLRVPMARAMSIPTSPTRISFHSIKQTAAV
T3 sequence (P24387 whole entry): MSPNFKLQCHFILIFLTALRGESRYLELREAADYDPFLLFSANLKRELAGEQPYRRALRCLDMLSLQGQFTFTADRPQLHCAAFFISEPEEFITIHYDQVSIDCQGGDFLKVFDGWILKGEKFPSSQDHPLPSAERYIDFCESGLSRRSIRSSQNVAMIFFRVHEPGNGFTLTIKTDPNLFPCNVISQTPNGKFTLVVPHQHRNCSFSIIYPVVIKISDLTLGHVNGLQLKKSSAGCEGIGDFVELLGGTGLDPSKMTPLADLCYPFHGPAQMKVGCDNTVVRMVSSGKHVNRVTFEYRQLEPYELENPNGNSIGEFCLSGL

[6] = P. falciparum Dd2 growth inhibitors, dose response, SYBR Green, cherry-picked samples (AID 1159567); assay type: functional, cell-based
INS1 = experiment: beta cell apoptosis inhibitors, cytokine rescue, dose response, luminescence, retest (AID 449756); assay type: functional, cell-based; details: Rattus norvegicus;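 also: cell death triggered by IL-1 beta plus TNF-alpha plus IFN-gamma mixture; protective hits raise ATP signal compared with cytokine alone wells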
[7] = Shn3 3'UTR reporter inhibitors, dose response, cell-based, Clone20 osteoblasts, firefly luciferase, cherry-picked (AID 624132); assay type: functional;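 also: firefly luciferase luminescence from reporter carrying the Shn3 3'UTR in osteoblasts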
[8] = control 3'UTR Renilla luciferase suppression, dose response, counter-screen for Shn3 inhibitor project, cell-based, Clone20-Shn3RL, cherry-picked (AID 624133); assay type: functional
BJ [9] = experiment: cytotoxicity toward BJ-TERT fibroblasts, dose response, cell-based, RAS-independent, luminescence (AID 1933); assay type: functional; details: Homo sapiens
BJ [10] = experiment: cells; assay type: functional, cell-based; details: Homo sapiens
BJ [11] = experiment: cytotoxicity toward BJ-TERT-LT-ST fibroblasts, dose response, cell-based, RAS-independent, luminescence (AID 1935); assay type: functional; details: Homo sapiens;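 also: BJ fibroblasts immortalized with TERT plus LT and ST oncogenes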
[12] = cytotoxicity toward DRD oncogenic fibroblasts, dose response, cell-based, non-viral oncogenic, luminescence (AID 1934); assay type: functional; details: Homo sapiens
[13] = target: T4, Calpain-2 catalytic subunit (Sus scrofa, UniProt P43367); experiment: pig calpain II inhibitor potency, dose response, biochemical, fluorogenic peptide substrate (AID 1420); assay type: functional
T4 sequence (P43367 whole entry): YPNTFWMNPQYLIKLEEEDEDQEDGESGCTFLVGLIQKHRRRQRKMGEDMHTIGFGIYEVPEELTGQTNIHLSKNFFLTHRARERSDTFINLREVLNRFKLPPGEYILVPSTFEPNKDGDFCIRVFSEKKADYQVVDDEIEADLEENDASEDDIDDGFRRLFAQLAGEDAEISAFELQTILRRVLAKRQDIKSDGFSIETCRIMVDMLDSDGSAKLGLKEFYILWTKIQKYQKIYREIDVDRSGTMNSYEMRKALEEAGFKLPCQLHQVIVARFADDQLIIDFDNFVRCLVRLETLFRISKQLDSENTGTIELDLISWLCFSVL

Large T antigen, sequence (P03070 whole entry): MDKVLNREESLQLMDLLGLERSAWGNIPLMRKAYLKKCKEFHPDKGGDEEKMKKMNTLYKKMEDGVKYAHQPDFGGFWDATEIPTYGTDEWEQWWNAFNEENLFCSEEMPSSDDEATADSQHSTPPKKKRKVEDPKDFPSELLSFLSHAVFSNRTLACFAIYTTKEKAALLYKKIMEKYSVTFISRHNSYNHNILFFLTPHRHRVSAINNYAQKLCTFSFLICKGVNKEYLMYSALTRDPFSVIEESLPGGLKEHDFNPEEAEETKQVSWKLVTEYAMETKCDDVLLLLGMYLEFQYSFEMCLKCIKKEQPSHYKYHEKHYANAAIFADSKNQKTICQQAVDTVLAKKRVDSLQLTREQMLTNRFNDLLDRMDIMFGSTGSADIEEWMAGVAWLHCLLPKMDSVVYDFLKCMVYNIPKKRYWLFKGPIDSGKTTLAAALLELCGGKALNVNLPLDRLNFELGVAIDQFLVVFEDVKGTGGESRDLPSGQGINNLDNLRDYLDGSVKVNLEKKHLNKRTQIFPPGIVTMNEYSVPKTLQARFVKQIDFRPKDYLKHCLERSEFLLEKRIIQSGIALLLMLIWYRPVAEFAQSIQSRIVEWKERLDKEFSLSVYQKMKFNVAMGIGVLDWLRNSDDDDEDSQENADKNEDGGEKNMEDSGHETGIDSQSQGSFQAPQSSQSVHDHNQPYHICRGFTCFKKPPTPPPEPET

Compound: C[C@@]12C(=O)N(Cc3ccc(F)cc3)CC(=O)N1[C@H]1c3cc(Cl)ccc3OC[C@@H]1[C@@H]2c1ccccc1
- AC50 [1]: 5.93 µM (active)
- AC50 [2]: 8.91 µM (active)
- AC50 [3]: 7.95 µM (active)

Compound: CC[C@@]1(O)C[C@H](OC2CC(N(C)C)C(OC3CC(O)C(OC4CC(O)C(O)C(C)O4)C(C)O3)C(C)O2)c2c(cc3c(c2O)C(=O)c2c(O)ccc(O)c2C3=O)[C@H]1C(=O)OC (stereo partly drawn)
- GI50 (P388/ADR): 0.713 µM (active)
- GI50 (SN12K1): 0.00695 µM (active)
- GI50 (P388): 0.00693 µM (active)

Compound: COc1cc(/C=C2\SC(=S)N(NS(=O)(=O)c3ccccc3)C2=O)ccc1O
- IC50 (Leucine aminopeptidase): 38.8 µM (active)
- IC50 (Aminopeptidase N): 24.5 µM (active)
- IC50 (Large T antigen): 14.5 µM (active)

Compound: COCCn1nnnc1CN(CCc1ccccc1)Cc1cc2cc(OC)ccc2nc1O
- IC50 (H9c2): 16.1 µM (active)
- AC50 [1]: 5.69 µM (active)
- AC50 [2]: 5.58 µM (active)
- AC50 [3]: 26.9 µM (active)
- AC50 [4]: 1.48 µM (active)

Compound: CC(=O)OC1CC2(O)C(CCC3(C)C(c4ccc(=O)oc4)CCC32O)C2(C)CCC(O)C=C12 (stereo not drawn)
- GI50 (P388/ADR): 7.26 µM (inactive)
- GI50 (SN12K1): 0.0196 µM (active)
- GI50 (P388): 4.37 µM (inactive)

Compound: CS(=O)(=O)N(Cc1ccc(Cl)cc1)c1ccc(C(=O)NCCSc2ccccn2)cc1
- EC50 [5]: > 53 µM (inactive)
- AC50 [1]: 5.5 µM (active)
- AC50 [2]: 52.2 µM (active)
- AC50 [3]: 18.6 µM (active)
- AC50 [4]: 6.23 µM (active)

Compound: CC(C)CNS(=O)(=O)c1ccc(CCC(=O)N2CCN(Cc3ccc4c(c3)OCO4)CC2)cc1
- AC50 [2]: 12.1 µM (active)
- AC50 [4]: 27.2 µM (active)

Compound: CC(=O)Nc1ccc(/C=C/c2ccc(NC(=O)Nc3ccc(/C=C/c4ccc(NC(C)=O)cc4S(=O)(=O)O)c(S(=O)(=O)O)c3)cc2S(=O)(=O)O)c(S(=O)(=O)O)c1
- GI50 (SN12K1): > 100 µM (inactive)
- GI50 (P388): > 100 µM (inactive)

Compound: CN(CO)c1nc(N(C)CO)nc(N(C)CO)n1 [TRIMELAMOL]
- GI50 (P388/ADR): 16.3 µM (inactive)
- GI50 (SN12K1): 4.98 µM (inactive)
- GI50 (P388): 6.15 µM (inactive)

Compound: CC(C)(O)C#Cc1cccc(-c2nc(C(=O)N[C@@H]3CCN(Cc4ccccc4)C3)cc3c2[C@H](CCO)N([S+]([O-])C(C)(C)C)C3)c1 (stereo partly drawn)
- AC50 [6]: 5.86 µM (active)

Compound: Clc1ccc(-c2cc(-c3nnc4n3CCCCC4)c3ccccc3n2)cc1
- AC50 (INS1): 6.17 µM (active)
- AC50 [7]: 5.59 µM (active)
- AC50 [8]: 11.1 µM (active)

Compound: CC1(C)CC2(CC(C)(C)N1O)NC(=O)OC2=O
- GI50 (P388/ADR): 4.47 µM (inactive)
- GI50 (SN12K1): > 100 µM (inactive)
- GI50 (P388): 60.7 µM (inactive)

Compound: CCCCCOc1ccc(/C=N\c2ccc(-c3ccc(/N=C\c4ccc(OCCCCC)cc4)c(OC)c3)cc2OC)cc1
- GI50 (SN12K1): > 100 µM (inactive)
- GI50 (P388): > 100 µM (inactive)

Compound: CN(C)CCNC(=O)c1cccc2nc(-c3ccccc3)oc12
- GI50 (P388/ADR): 8.63 µM (inactive)
- GI50 (SN12K1): 22.8 µM (inactive)
- GI50 (P388): 4.34 µM (inactive)

Compound: COc1ccccc1/C=N/N1C(=O)C(CC(=O)Nc2ccc([N+](=O)[O-])cc2OC)S/C1=N\c1cccc(C)c1C (stereo not drawn)
- EC50 (BJ [9]): 10.6 µM (active)
- EC50 (BJ [10]): 22.9 µM (active)
- EC50 (BJ [11]): 14.9 µM (inconclusive)
- EC50 [12]: 4.24 µM (active)

Compound: Nc1c(Cl)cc2c(c1Oc1ccccc1)C(=O)c1ccccc1C2=O
- IC50 [13]: 2.46 µM (not active)
- AC50 [1]: 11.2 µM (active)
- AC50 [2]: 14.3 µM (active)
- AC50 [3]: 11.2 µM (active)
- AC50 [4]: 16.4 µM (active)

Compound: Cc1ccc(C(=O)Nc2ncn(C3CC(O)C(CO)O3)c(=O)n2)cc1 (stereo not drawn)
- GI50 (P388/ADR): 3.69 µM (inactive)
- GI50 (SN12K1): > 100 µM (inactive)
- GI50 (P388): 5.26 µM (inactive)
